Measured values reported in ChEMBL document CHEMBL2380259, “Indazole-based potent and cell-active Mps1 kinase inhibitors: rational design from pan-kinase inhibitor anthrapyrazolone (SP600125)” (J Med Chem, 2013).

Assays:
[1] = Apparent permeability across MDCK cells; type: ADME, cell-based, Canis lupus familiaris; settings: dog
[2] = target: T1, Dual specificity protein kinase TTK (Homo sapiens, UniProt P33981); experiment: Inhibition of FLAG-tagged MPS1 phosphorylation in human RERF-LC-AI Tet-off cells after 3 hrs; type: cell-based
T1 sequence (P33981 whole entry): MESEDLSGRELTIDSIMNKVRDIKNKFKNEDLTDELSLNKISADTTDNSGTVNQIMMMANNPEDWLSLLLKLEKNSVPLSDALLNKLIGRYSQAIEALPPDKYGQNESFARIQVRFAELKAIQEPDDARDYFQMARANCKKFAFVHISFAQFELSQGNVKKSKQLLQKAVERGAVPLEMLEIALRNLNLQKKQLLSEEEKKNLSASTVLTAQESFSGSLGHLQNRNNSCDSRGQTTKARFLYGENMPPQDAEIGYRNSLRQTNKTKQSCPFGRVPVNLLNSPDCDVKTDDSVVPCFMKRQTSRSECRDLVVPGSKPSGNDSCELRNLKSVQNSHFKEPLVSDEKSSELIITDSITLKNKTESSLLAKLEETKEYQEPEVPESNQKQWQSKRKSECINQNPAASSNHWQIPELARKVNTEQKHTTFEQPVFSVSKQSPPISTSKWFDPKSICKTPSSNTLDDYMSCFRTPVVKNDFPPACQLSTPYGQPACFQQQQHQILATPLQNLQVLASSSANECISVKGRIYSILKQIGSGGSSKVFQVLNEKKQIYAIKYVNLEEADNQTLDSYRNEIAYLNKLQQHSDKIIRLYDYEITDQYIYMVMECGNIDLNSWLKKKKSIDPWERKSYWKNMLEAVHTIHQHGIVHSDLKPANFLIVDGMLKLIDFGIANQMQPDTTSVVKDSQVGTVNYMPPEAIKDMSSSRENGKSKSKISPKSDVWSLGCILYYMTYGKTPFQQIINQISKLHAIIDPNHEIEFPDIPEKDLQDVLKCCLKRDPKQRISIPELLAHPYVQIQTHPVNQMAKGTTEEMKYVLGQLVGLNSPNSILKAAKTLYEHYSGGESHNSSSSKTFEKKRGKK

A549 = experiment: cells; settings: Homo sapiens, A549, 72 h
[3] = Cmax in Sprague-Dawley rat at 1 mg/kg, po by LC-MS/MS analysis; type: ADME, organism-based; parameters: dose 1 mg/kg, route oral; settings: in vivo
[4] = Lipophilicity index, log K of the compound by RP-HPLC analysis; type: physicochemical
[5] = Oral bioavailability in Sprague-Dawley rat at 1 mg/kg by LC-MS/MS analysis; type: ADME, organism-based; settings: in vivo
[6] = Volume of distribution at steady state in Sprague-Dawley rat at 0.5 mg/kg, iv by LC-MS/MS analysis; type: ADME, organism-based; parameters: dose 0.5 mg/kg, route intravenous; settings: in vivo, read-out: Vdss
[7] = target: T1, Dual specificity protein kinase TTK; experiment: Inhibition of MPS1 (unknown origin) using biotin-labeled AGAGLARHTDDEMTGYVA as substrate after 90 mins by DELFIA
[8] = Clearance in Sprague-Dawley rat at 0.5 mg/kg, iv by LC-MS/MS analysis; type: ADME, organism-based; parameters: dose 0.5 mg/kg, route intravenous; settings: in vivo
[9] = target: Serine/threonine-protein kinase PLK1 (Homo sapiens, UniProt P53350); experiment: Inhibition of human PLK1
[10] = Metabolic stability in Sprague-Dawley rat hepatocytes assessed as compound remaining at 2 uM after 1 hr by LC-MS/MS analysis; type: ADME, cell-based, Hepatocyte; settings: read-out: Stability
[11] = AUC in Sprague-Dawley rat at 1 mg/kg, po by LC-MS/MS analysis; type: ADME, organism-based; parameters: dose 1 mg/kg, route oral; settings: plasma
[12] = target: Mitogen-activated protein kinase 8 (Homo sapiens, UniProt P45983); experiment: Inhibition of JNK1 (unknown origin) using ATF2 as substrate measured after 1 hr by ELISA
[13] = target: T1, Dual specificity protein kinase TTK

Mitogen-activated protein kinase 8, sequence (P45983 whole entry): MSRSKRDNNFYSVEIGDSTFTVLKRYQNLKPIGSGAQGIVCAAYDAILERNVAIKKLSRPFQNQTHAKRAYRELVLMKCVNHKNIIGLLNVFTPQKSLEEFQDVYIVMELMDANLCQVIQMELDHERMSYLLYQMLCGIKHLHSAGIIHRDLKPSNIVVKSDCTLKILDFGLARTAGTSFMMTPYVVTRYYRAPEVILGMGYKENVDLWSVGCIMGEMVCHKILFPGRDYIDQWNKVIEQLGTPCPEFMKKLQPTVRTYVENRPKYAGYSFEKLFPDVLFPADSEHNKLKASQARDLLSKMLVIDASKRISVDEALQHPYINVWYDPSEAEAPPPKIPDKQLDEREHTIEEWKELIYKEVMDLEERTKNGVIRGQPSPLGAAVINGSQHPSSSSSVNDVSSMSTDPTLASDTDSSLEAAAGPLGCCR
Serine/threonine-protein kinase PLK1, sequence (P53350 whole entry): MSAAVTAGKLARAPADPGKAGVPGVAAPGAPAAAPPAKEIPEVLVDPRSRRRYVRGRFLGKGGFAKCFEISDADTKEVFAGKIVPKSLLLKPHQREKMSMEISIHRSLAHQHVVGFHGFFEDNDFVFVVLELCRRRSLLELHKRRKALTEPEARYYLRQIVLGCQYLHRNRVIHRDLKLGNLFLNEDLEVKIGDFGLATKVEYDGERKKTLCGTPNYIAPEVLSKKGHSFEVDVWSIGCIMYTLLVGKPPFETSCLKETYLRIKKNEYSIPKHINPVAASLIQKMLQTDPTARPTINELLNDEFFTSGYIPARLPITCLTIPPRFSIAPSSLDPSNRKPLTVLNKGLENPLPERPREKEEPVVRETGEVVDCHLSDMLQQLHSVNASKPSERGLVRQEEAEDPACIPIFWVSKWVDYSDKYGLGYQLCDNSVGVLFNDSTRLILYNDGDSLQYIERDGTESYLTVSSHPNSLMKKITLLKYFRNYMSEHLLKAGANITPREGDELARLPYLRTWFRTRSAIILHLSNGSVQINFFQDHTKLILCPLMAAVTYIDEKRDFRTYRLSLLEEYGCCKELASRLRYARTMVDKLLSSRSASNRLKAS

Compound | IC50 [2] | IC50 (A549) | log K [4] | IC50 [7] | IC50 [12] | other results
Cn1cc(-c2cc3[nH]nc(-c4cccc(S(N)(=O)=O)c4)c3cc2NC2CCCCC2)cn1 | 20.5 nM | 152 nM | 0.92 | 10.4 nM | 37 nM | Papp [1]: 2.69 ×10⁻⁶ cm/s; Cmax [3]: 1.4 ng/mL; bioavailability [5]: 2.3%; Vd [6]: 2.8 L/kg; clearance [8]: 33 mL/min/kg; IC50 [9]: > 5000 nM; remaining at 1 h, 2 µM [10]: 69%; AUC [11]: 11.5 ng·h/mL
CCOc1cc2c(-c3ccc(C)c(S(N)(=O)=O)c3)n[nH]c2cc1-c1cnn(C)c1 | 198 nM | 686 nM | 0.82 | 3.67 nM | 43.5 nM | –
Cc1cc(N2CCOCC2)ccc1Nc1nc(NC2CCCCC2)c2nc[nH]c2n1 | – | > 10000 nM | – | – | – | –
CCc1cccc(CC)c1NC(=O)c1nn(C)c2c1CCc1cnc(Nc3ccc(C(=O)NC4CCN(C)CC4)cc3OC(F)(F)F)nc1-2 | – | 1250 nM | – | – | – | –
Cn1cc(-c2cc3[nH]nc(-c4cccc(S(N)(=O)=O)c4)c3cc2OC2CCCCC2)cn1 | 74 nM | 646 nM | 0.93 | 7.93 nM | 118 nM | –
c1ccc(-c2[nH]nc3ccccc23)cc1 | – | – | – | 2100 nM | – | –
CCOc1ccc2[nH]nc(-c3ccccc3)c2c1 | – | – | – | 498 nM | – | –
Oc1c2ccccc2c2c3c(cccc13)N=N2 [SP-600125] | – | – | – | – | – | IC50 [13]: 98 nM

Further lines, with some results ahead:

IC50 [2] | IC50 (A549) | log K [4] | IC50 [7] | IC50 [12] | Compound | other results
30.4 nM | 283 nM | 0.94 | 12 nM | 12.1 nM | CC(=O)Nc1cccc(-c2n[nH]c3cc(-c4cnn(C)c4)c(NC4CCCCC4)cc23)c1 | Papp [1]: 20.5 ×10⁻⁶ cm/s; Cmax [3]: 18 ng/mL; bioavailability [5]: 17%; Vd [6]: 1 L/kg; clearance [8]: 19 mL/min/kg; IC50 [9]: > 5000 nM; remaining at 1 h, 2 µM [10]: 64%; AUC [11]: 149 ng·h/mL
85.8 nM | 1020 nM | 0.79 | 3.06 nM | 93.7 nM | CCOc1cc2c(-c3cccc(S(N)(=O)=O)c3)n[nH]c2cc1-c1cnn(C)c1 | Papp [1]: 0.6 ×10⁻⁶ cm/s
> 10000 nM | > 10000 nM | 0.91 | 173 nM | 1030 nM | CCOc1cc2c(-c3cccc(S(N)(=O)=O)c3)n[nH]c2cc1-c1ccccc1 | –
2070 nM | > 10000 nM | 0.74 | 9.76 nM | 141 nM | CCOc1cc2c(-c3cccc(S(N)(=O)=O)c3)n[nH]c2cc1-c1cn[nH]c1 | –
– | – | – | 189 nM | 42.8 nM | CCOc1ccc2[nH]nc(-c3cccc(C(N)=O)c3)c2c1 | –
4110 nM | 6460 nM | 0.87 | 119 nM | 441 nM | CCOc1cc2c(-c3cccc(S(N)(=O)=O)c3)n[nH]c2cc1-c1cnn(CC(C)C)c1 | –
3350 nM | > 20000 nM | 0.86 | 17 nM | 175 nM | CCOc1cc2c(-c3cccc(S(N)(=O)=O)c3)n[nH]c2cc1C#N | –
– | – | – | 438 nM | 169 nM | CCOc1ccc2[nH]nc(-c3ccc(NC(C)=O)cc3)c2c1 | –
2740 nM | > 20000 nM | 0.79 | 28 nM | 150 nM | CCOc1ccc2[nH]nc(-c3cccc(S(N)(=O)=O)c3)c2c1 | –
9720 nM | 6380 nM | 0.87 | 32 nM | 43 nM | CCOc1cc2c(-c3cccc(NC(C)=O)c3)n[nH]c2cc1C#N | –
– | – | – | 116 nM | 79.5 nM | CCOc1ccc2[nH]nc(-c3cccc(NC(C)=O)c3)c2c1 | –
